From PubChem BioAssay (NCI) come the findings set out here.

Broadly, the GI50 is the concentration that inhibits growth by half. Usually TGI stands for the concentration giving total growth inhibition.

Experiment in all cases: DTP human tumour cell line panel, 48 h
The test system of assay [1] is HCT-116 colon.
Assay [2] relates to MDA-MB-435.
Assay [3] relates to SNB-19 CNS.
Assay [4] concerns RXF 393 renal.
The test system of assay [5] is U251 CNS.
The subject of assay [6] is MALME-3M melanoma.
The subject of assay [7] is PC-3 prostate.
Assay [8] relates to K-562 leukemia.
For assay [9], the system named is UO-31 renal.
Assay [10] relates to KM12 colon.

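Five concentrations, 48 hours, 96-well plates. GI50 is the concentration that inhibits growth by half. Definition used: TGI = concentration required for complete inhibition of growth.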

For `O=C1CC(N2C(=O)/C(=C/C(Cl)=C\c3ccc([N+](=O)[O-])cc3)SC2=S)C(=O)N1c1ccc(Cl)cc1` (centres undefined), the GI50 is 1.35 µM in [1]; 1.65 µM in assay [2]; 1.17 µM in assay [3]; 1.26 µM in [4]; 0.478 µM in assay [5]; 3.09 µM in [6]. The GI50 in [7] is 1.34 µM; in [8], 0.692 µM; in assay [9], 1.07 µM. Also, the TGI in assay [1] was 3.04 µM; in [2] it was 3.39 µM; in assay [3], 2.97 µM; in assay [4], 2.72 µM; in [5], 2.47 µM; in assay [6] it was 11.6 µM. The TGI in [7] came out at 4.15 µM; in assay [8], 11.6 µM; in assay [9], 3.3 µM.

For the compound `CCn1cc(C(=O)O)c(=O)c2cc(F)c(N3CCN(Cn4c(O)c(N=NC(=O)c5ccncc5)c5cc(Cl)ccc54)CC3)cc21`, the concentration for total growth inhibition (TGI) is over 100 µM in [1]; over 100 µM in assay [2]; over 100 µM in assay [3]; 51.3 µM in assay [4]; 94.4 µM in [5]; over 100 µM in assay [6]. Also, the TGI in [10], in assay [7], in [8] and in assay [9] was over 100 µM throughout.

For `C=CCOCCCC(=O)C(=[N+]=[N-])C(=O)OC`, the TGI in assay [1], in [3], in assay [4], in assay [5], in [6] and in assay [10] was over 100 µM in each case. The TGI in [8] and in assay [9] was over 100 µM in each case.

Consider `OC(c1ccc(-c2ccccc2)cc1)(c1ccc(-c2ccccc2)cc1)c1ccc(-c2ccccc2)cc1`, for which the TGI in assay [1], in [2], in assay [3], in [4], in assay [5] and in assay [10] was over 100 µM in each case. Besides, the TGI in assay [7], in assay [8] and in [9] was over 100 µM in each case.

Turning to `CCCCC1Cc2cc(OC)ccc2-c2nc3cc(OC)ccc3n21` (centres undefined) (tested in a mixture with another compound), the TGI in assay [1] was 22.8 µM; in assay [2] it was 26.3 µM; in [3], 21.5 µM; in [4], 30.8 µM; in [5], 28.3 µM; in assay [6], 34.9 µM. For the same compound, the TGI in assay [10] amounted to 43.4 µM; in assay [7] it was 24.7 µM; in [8], 36.8 µM; in assay [9], 24.7 µM.

Take `N=C(N)C(N=Nc1ccccc1)C(=N)N` (centres undefined): the TGI in assay [1] is over 100 µM; in [2], 42.7 µM; in assay [3], over 100 µM; in [4], over 100 µM; in [5], over 100 µM; in [6], over 100 µM. Further, the TGI in assay [10] was over 100 µM; in assay [7], over 100 µM; in assay [8], 99.1 µM; in [9], over 100 µM.

With `O=C(O)C(Cc1ccccc1)N1C(=O)c2ccccc2C1=O` (centres undefined), the concentration for total growth inhibition (TGI) in assay [1], in [2], in [3], in [4], in assay [5] and in [6] was over 100 µM in each case. Also, the TGI in assay [10], in [7], in assay [8] and in assay [9] was over 100 µM throughout.

Turning to `Cc1cc(C)n(C(=O)C(C)Sc2nnc(SC(C)C(=O)n3nc(C)cc3C)s2)n1` (centres undefined), the TGI in assay [1], in assay [2], in assay [3], in [4], in [5] and in [6] was over 100 µM each time. Besides, the TGI in [10], in assay [7], in assay [8] and in assay [9] was over 100 µM in each case.

With `O=C1CS(=O)(=O)C(c2cccc(Oc3ccccc3)c2)N1c1cccc(Cl)c1Cl` (centres undefined), the TGI is 40.9 µM in assay [1]; 48.8 µM in assay [2]; over 100 µM in assay [3]; 66.9 µM in [4]; 37.4 µM in assay [5]; 59.5 µM in assay [6]. For the same compound, the concentration for total growth inhibition (TGI) is over 100 µM in assay [10], 89.9 µM in [7], 46 µM in [8] and over 100 µM in [9].

In the case of `O=C1CCC(NC(=O)Cc2ccc(O)cc2)C(=O)N1` (centres undefined), the TGI in [1], in assay [3], in [5], in assay [10] and in assay [9] was over 2500 µM throughout.

Regarding `C=C1C(C2(C)C=CC(=O)OC3(C)COC(=O)CC32)C(OC=O)C(OC(=O)C(O)C(C)CC)C2(C)C(c3ccoc3)CC(OC(C)=O)C12O` (centres undefined), the concentration for total growth inhibition (TGI) in assay [1], in assay [2], in assay [3], in assay [4], in assay [5] and in assay [10] was over 100 µM in each case. The TGI in assay [7], in assay [8] and in assay [9] was over 100 µM each time.

Consider `O=C1c2scnc2-c2nccc3c2c1nc1ccccc13`, for which the total growth inhibition concentration (TGI) in assay [2] is 0.307 µM; in [4], 3.98 µM; in assay [6] it was 1.51 µM; in assay [7], over 100 µM; in assay [8], over 100 µM; in assay [9], 2.74 µM.

For `CO[C@@]12C[C@@H](CNC(=O)c3cc(Br)c[nH]3)O[C@@H]1NC(=O)N2`, the TGI in assay [1], in assay [2], in assay [3], in assay [4], in assay [5] and in assay [6] was over 100 µM throughout. In addition, the TGI in assay [10], in [7] and in [9] was over 100 µM in each case.
